Source: ChEMBL document CHEMBL1145124, “Identification and prediction of promiscuous aggregating inhibitors among known drugs” (J Med Chem, 2003)

How the values were obtained:
Beta-lactamase [1] = molecular target: T1, Beta-lactamase (Escherichia coli K-12, UniProt P00811); experiment: Compound was tested for the inhibition of beta-lactamase
Chymotrypsinogen A [2] = molecular target: T2, Chymotrypsinogen A (Bos taurus, UniProt P00766); experiment: Compound was tested for the inhibition of Chymotrypsinogen
[3] = molecular target: T3, Chymotrypsin-C (Homo sapiens) (UniProt Q99895); experiment: Inhibition of chymotrypsin at 250 uM; conditions: unidentified
T3 sequence (whole entry): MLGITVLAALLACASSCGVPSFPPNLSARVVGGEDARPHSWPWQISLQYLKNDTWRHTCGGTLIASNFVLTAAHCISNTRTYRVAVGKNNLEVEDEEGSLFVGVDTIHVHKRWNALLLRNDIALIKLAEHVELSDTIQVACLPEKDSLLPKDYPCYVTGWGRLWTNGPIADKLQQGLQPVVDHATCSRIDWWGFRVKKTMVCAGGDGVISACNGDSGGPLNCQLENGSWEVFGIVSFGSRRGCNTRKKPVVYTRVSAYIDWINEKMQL

[4] = molecular target: T4, Malate dehydrogenase, cytoplasmic (Homo sapiens) (UniProt P40925); experiment: Inhibition of malate dehydrogenase (MDH) at 400 uM
T4 sequence (whole entry): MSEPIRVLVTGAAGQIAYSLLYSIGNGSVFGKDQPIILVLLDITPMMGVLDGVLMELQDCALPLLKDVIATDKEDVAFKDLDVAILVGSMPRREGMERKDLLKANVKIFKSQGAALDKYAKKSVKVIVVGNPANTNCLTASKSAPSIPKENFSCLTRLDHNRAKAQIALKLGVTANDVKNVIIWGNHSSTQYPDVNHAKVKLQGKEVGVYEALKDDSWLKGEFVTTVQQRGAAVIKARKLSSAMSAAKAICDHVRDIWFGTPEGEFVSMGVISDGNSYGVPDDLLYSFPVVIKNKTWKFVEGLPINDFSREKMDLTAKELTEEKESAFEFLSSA

[5] = molecular target: Beta-lactamase (Escherichia coli K-12) (UniProt P00811); experiment: Inhibition of beta-lactamase at 100 uM
Chain of Beta-lactamase (Escherichia coli K-12) (P00811 whole entry): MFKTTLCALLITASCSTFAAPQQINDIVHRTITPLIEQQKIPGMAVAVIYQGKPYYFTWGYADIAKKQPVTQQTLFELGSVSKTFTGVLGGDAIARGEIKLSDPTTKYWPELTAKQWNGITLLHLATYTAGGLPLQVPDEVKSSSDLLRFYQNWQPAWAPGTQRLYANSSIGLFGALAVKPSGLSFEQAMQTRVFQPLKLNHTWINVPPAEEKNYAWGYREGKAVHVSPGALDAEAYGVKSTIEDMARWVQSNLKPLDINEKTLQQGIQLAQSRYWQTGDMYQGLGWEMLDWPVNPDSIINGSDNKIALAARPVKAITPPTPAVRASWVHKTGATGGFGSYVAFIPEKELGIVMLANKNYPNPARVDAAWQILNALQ

[6] = molecular target: T5, Malate dehydrogenase, mitochondrial (Sus scrofa) (UniProt P00346); experiment: Compound was tested for the inhibition of malate dehydrogenase (MDH) at 200 uM
T5 sequence (whole entry): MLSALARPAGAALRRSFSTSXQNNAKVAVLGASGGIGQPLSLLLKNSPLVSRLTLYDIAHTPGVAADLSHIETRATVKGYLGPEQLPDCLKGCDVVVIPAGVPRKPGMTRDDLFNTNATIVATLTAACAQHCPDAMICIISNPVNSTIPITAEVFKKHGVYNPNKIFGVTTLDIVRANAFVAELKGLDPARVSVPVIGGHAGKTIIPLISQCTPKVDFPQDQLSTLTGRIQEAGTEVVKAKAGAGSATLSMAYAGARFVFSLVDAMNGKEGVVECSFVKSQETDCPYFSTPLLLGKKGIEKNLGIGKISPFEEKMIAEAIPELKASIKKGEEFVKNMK

[7] = Mean maximal plasma concentration; format: ADME, organism-based
Beta-lactamase [8] = molecular target: T1, Beta-lactamase; experiment: Effect of increase in enzyme concentration by 10 times on the inhibition of beta-lactamase by the compound:No inhibition
Beta-lactamase [9] = molecular target: T1, Beta-lactamase; experiment: Effect of pre-incubation with enzyme on the inhibition of beta-lactamase:No inhibition
Beta-lactamase [10] = molecular target: T1, Beta-lactamase; experiment: Compound was tested for the inhibition beta-lactamase with 0.1 mg/ml saponin:No inhibition
[11] = molecular target: T5, Malate dehydrogenase, mitochondrial (Sus scrofa); experiment: Compound was tested for the inhibition of malate dehydrogenase (MDH) at 100 uM
[12] = molecular target: Chymotrypsinogen A (Bos taurus) (UniProt P00766); experiment: Compound was tested for the inhibition of Chymotrypsinogen at 250 uM (Inhibition is time dependent)
[13] = molecular target: T6, Malate dehydrogenase, mitochondrial (Sus scrofa, UniProt P00346); experiment: Fold increase in IC50 vs malate dehydrogenase (MDH) with 1 mg/ml saponin; increase
T6 sequence (P00346 whole entry): T5 sequence (whole entry)

[14] = molecular target: Chymotrypsinogen A (Bos taurus) (UniProt P00766); experiment: Compound was tested for the inhibition of Chymotrypsinogen at 400 uM
[15] = molecular target: T6, Malate dehydrogenase, mitochondrial; experiment: Fold decrease in IC50 vs malate dehydrogenase (MDH) on pre-incubation; no change
[16] = molecular target: T5, Malate dehydrogenase, mitochondrial (Sus scrofa); experiment: Compound was tested for the inhibition of malate dehydrogenase (MDH) at 50 uM
[17] = Topical dosage on […] scabies; format: functional
Chymotrypsinogen A [18] = molecular target: T2, Chymotrypsinogen A; experiment: Fold decrease in IC50 vs chymotrypsinogen on pre-incubation; increase

T1 sequence (P00811 whole entry): as the sequence (P00811 whole entry) above

Row | Structure (SMILES) | inhibition [3] [%] | inhibition [4] [%] | inhibition [5] [%] | other results
1 | CC(C)Nc1cccnc1N1CCN(C(=O)c2cc3cc(NS(C)(=O)=O)ccc3[nH]2)CC1 [DELAVIRDINE] | – | – | – | IC50 (Beta-lactamase [1]): 90 µM; IC50 (Chymotrypsinogen A [2]): 225 µM
2 | CCC1(c2ccccc2)C(=O)NCNC1=O | < 5 | 13 | < 5 | –
3 | NS(=O)(=O)c1cc(C2(O)NC(=O)c3ccccc32)ccc1Cl (stereo unspecified) | < 5 | – | < 5 | inhibition [6]: < 5%
4 | COc1ccc(Cl)cc1C(=O)NCCc1ccc(S(=O)(=O)NC(=O)NC2CCCCC2)cc1 [GLYBURIDE] | – | – | – | IC50 (Beta-lactamase [1]): 300 µM; IC50 (Chymotrypsinogen A [2]): 360 µM; Cmax [7]: 0.215 µM
5 | CNCCCC1c2ccccc2C=Cc2ccccc21 | < 5 | < 5 | < 5 | –
6 | CC(=O)N1CCN(c2ccc(OCC3COC(Cn4ccnc4)(c4ccc(Cl)cc4Cl)O3)cc2)CC1 (stereo unspecified) [KETOCONAZOLE] | – | – | – | IC50 (Beta-lactamase [1]): > 150 µM; IC50 (Beta-lactamase [8]): Not Active; IC50 (Chymotrypsinogen A [2]): > 150 µM; IC50 (Beta-lactamase [9]): Not Active; IC50 (Beta-lactamase [10]): Not Active
7 | COc1cc2nc(N3CCN(C(=O)c4ccco4)CC3)nc(N)c2cc1OC | < 5 | – | 13 | inhibition [11]: 14%
8 | O=C(O)c1cc(-c2ccc(F)cc2F)ccc1O | 13 | < 5 | < 5 | –
9 | NC(=O)N1c2ccccc2C=Cc2ccccc21 | < 5 | 8 | < 5 | –
10 | Nc1nc2ccc(OC(F)(F)F)cc2s1 | < 5 | – | < 5 | inhibition [6]: < 5%
11 | N=C(N)N/N=C/c1c(Cl)cccc1Cl | < 5 | 20 | 83 | –
12 | CCc1cccc2c3c([nH]c12)C(CC)(CC(=O)O)OCC3 (stereo unspecified) | < 5 | 9 | < 5 | –
13 | CC(C)[N+](C)(CCOC(=O)C1c2ccccc2Oc2ccccc21)C(C)C | – | < 5 | < 5 | inhibition [12]: 96%
14 | COc1ccc2c(c1)c(CC(=O)O)c(C)n2C(=O)c1ccc(Cl)cc1 | < 5 | 7 | < 5 | –
15 | COc1ccccc1OCC(O)CO (stereo unspecified) | < 5 | < 5 | < 5 | –
16 | Cc1nccn1CC1CCc2c(c3ccccc3n2C)C1=O (stereo unspecified) | < 5 | < 5 | < 5 | –
17 | Cc1cccc(Nc2ccccc2C(=O)O)c1C [MEFENAMIC ACID] | – | – | – | IC50 (Beta-lactamase [1]): 350 µM; Cmax [7]: 83 µM; IC50 [13]: increase; inhibition [14]: 41%
18 | COC(=O)C1=C(C)NC(C)=C(C(=O)OCCN(C)Cc2ccccc2)C1c1cccc([N+](=O)[O-])c1 (stereo unspecified) [NICARDIPINE] | – | – | – | IC50 (Chymotrypsinogen A [2]): 175 µM; Cmax [7]: 0.184 µM; IC50 [15]: Not Active
19 | Cc1cc2nc3c(=O)[nH]c(=O)nc-3n(C[C@H](O)[C@H](O)[C@H](O)CO)c2cc1C | < 5 | – | < 5 | inhibition [11]: < 5%
20 | COC(=O)Nc1nc2cc(C(=O)c3ccccc3)ccc2[nH]1 | < 5 | 15 | < 5 | –
21 | Clc1ccc(CSC(Cn2ccnc2)c2ccc(Cl)cc2Cl)cc1 (stereo unspecified) [SULCONAZOLE] | – | – | – | IC50 (Chymotrypsinogen A [2]): 110 µM
22 | CC(C)C(=O)Nc1ccc([N+](=O)[O-])c(C(F)(F)F)c1 | < 5 | – | < 5 | inhibition [11]: < 5%
23 | Nc1ccc(S(=O)(=O)c2ccc(N)cc2)cc1 | < 5 | 11 | < 5 | –
24 | O=C1CN(/N=C/c2ccc([N+](=O)[O-])o2)C(=O)N1 | 91 | 97 | < 5 | –
25 | O=C(O)CCCc1ccc(N(CCCl)CCCl)cc1 | 23 | 44 | < 5 | –
26 | CCN(CC)CC(=O)Nc1c(C)cccc1C | < 5 | < 5 | < 5 | –
27 | Cc1c(OCC(F)(F)F)ccnc1C[S+]([O-])c1nc2ccccc2[nH]1 (stereo unspecified) | < 5 | < 5 | < 5 | –
28 | COc1cc(Cc2cnc(N)nc2N)cc(OC)c1OC | < 5 | < 5 | < 5 | –

Row | Structure (SMILES) | inhibition [3] [%] | inhibition [4] [%] | inhibition [5] [%] | other results
29 | CN(C)CCN(Cc1ccccc1)c1ccccn1 | < 5 | < 5 | < 5 | –
30 | Cc1oncc1C(=O)Nc1ccc(C(F)(F)F)cc1 | < 5 | 12 | < 5 | –
31 | CCCC(C)(COC(N)=O)COC(=O)NC(C)C (stereo unspecified) | < 5 | < 5 | < 5 | –
32 | CCn1nc(C(=O)O)c(=O)c2cc3c(cc21)OCO3 | < 5 | – | < 5 | inhibition [16]: < 5%
33 | CC(=O)N(O)CCCCCNC(=O)CCC(=O)N(O)CCCCCNC(=O)CCC(=O)N(O)CCCCCN | < 5 | < 5 | < 5 | –
34 | Nc1ccc(/N=N/c2ccccc2)c(N)n1 | 96 | 34 | < 5 | –
35 | Nc1nc(N)c2nc(-c3ccccc3)c(N)nc2n1 | < 5 | – | < 5 | inhibition [16]: 21%
36 | O=C1C(CC[S+]([O-])c2ccccc2)C(=O)N(c2ccccc2)N1c1ccccc1 (stereo unspecified) | 27 | 83 | < 5 | –
37 | COc1ccc2[nH]c([S+]([O-])Cc3ncc(C)c(OC)c3C)nc2c1 (stereo unspecified) | < 5 | < 5 | < 5 | –
38 | Cc1ccc(C)c(OCCCC(C)(C)C(=O)O)c1 | < 5 | – | < 5 | inhibition [6]: 14%
39 | NS(=O)(=O)c1cc(C(=O)O)c(NCc2ccco2)cc1Cl | < 5 | 21 | < 5 | –
40 | Clc1ccc(COC(Cn2ccnc2)c2ccc(Cl)cc2Cl)c(Cl)c1 (stereo unspecified) [MICONAZOLE] | – | – | – | IC50 (Beta-lactamase [1]): 40 µM; IC50 (Chymotrypsinogen A [2]): 125 µM
41 | Clc1ccc(COC(Cn2ccnc2)c2ccc(Cl)cc2Cl)cc1 (stereo unspecified) [ECONAZOLE] | – | – | – | IC50 (Beta-lactamase [1]): 25 µM; IC50 (Chymotrypsinogen A [2]): 150 µM
42 | O=C(O)CCCCCCCC(=O)O | < 5 | 8 | < 5 | –
43 | Nc1nnc(-c2cccc(Cl)c2Cl)c(N)n1 | < 5 | 11 | < 5 | –
44 | NCCNCCNCCNCCN | < 5 | < 5 | < 5 | –
45 | OC(Cn1cncn1)(Cn1cncn1)c1ccc(F)cc1F [FLUCONAZOLE] | – | – | – | IC50 (Beta-lactamase [1]): > 400 µM; IC50 (Beta-lactamase [8]): Not Active; IC50 (Chymotrypsinogen A [2]): > 400 µM; IC50 (Beta-lactamase [9]): Not Active; IC50 (Beta-lactamase [10]): Not Active
46 | Nc1ccc(S(=O)(=O)Nc2ncccn2)cc1 | < 5 | – | < 5 | inhibition [6]: < 5%
47 | O=C(OCc1ccccc1)c1ccccc1 [BENZYL BENZOATE] | – | – | – | IC50 (Beta-lactamase [1]): 90 µM; Topical dosage [17]: 1.2 M; IC50 (Chymotrypsinogen A [2]): 250 µM
48 | Nc1ccc(O)c(C(=O)O)c1 | < 5 | – | < 5 | inhibition [6]: 18%
49 | CN(C)CCOC(c1ccccc1)c1ccccc1 | < 5 | < 5 | < 5 | –
50 | Clc1ccccc1C(c1ccccc1)(c1ccccc1)n1ccnc1 [CLOTRIMAZOLE] | – | – | – | IC50 (Beta-lactamase [1]): 20 µM; IC50 (Chymotrypsinogen A [2]): 85 µM; IC50 (Chymotrypsinogen A [18]): Increase
51 | Nc1c2c(nc3ccccc13)CCCC2 | < 5 | 83 | < 5 | –
52 | O=C1CCC(N2C(=O)c3ccccc3C2=O)C(=O)N1 (stereo unspecified) | < 5 | < 5 | < 5 | –
53 | Nc1cc(-c2ccncc2)c[nH]c1=O | < 5 | – | < 5 | inhibition [16]: < 5%
54 | Cc1cccc(Nc2ccncc2S(=O)(=O)NC(=O)NC(C)C)c1 | < 5 | 14 | < 5 | –
55 | O=C(O)CCc1nc(-c2ccccc2)c(-c2ccccc2)o1 [OXAPROZIN] | – | – | – | IC50 (Beta-lactamase [1]): > 400 µM; IC50 (Chymotrypsinogen A [2]): 200 µM; Cmax [7]: 372 µM; IC50 (Chymotrypsinogen A [18]): Increase
